Legend:
COL2A1 promoter = COL2A1 promoter luciferase cotransfection in T/C-28a2 cells; format: cell-based, human; conditions: for inhibition of COL2A1/4.0 activity: T/C-28a2, pGL3 construct, highest concentrations tested
Experimental: The COL2A1 sequence spanning −577 to +3428 bp (Goldring M B, et al, J Cell Biochem 1994;54:85-99, 39) was cloned into the pGL2-basic (pGL2B) luciferase reporter gene vector (Promega,) and named pGL2-COL2/4.0. Deletion constructs containing −577/+125 bp, −131/+125 bp, −87/+125 bp were prepared by enzyme digestion of pGL2-COL2/4.0 using PstI, ApaI, and PuuII, followed by ligation. For the deletion constructs −45/+125 bp, −83/+7 bp, and −45/+7 bp, PCR products were generated as described (Osaki et al.) and cloned into the pGL2-Basic luciferase vector. These reporter constructs were used as templates to generate point mutations or internal deletions by PCR mutagenesis employing the oligonucleotides listed in FIG. 16 and the QuikChange™ Site-Directed Mutagenesis Kit (Stratagene, La Jolla, Calif.). DNA fragments containing point mutations were then cloned into the pGL2B vector and confirmed by DNA sequencing using a G2 primer on pGL2 DNA. Deletions were also made in the −577/+127 bp COL2A1 promoter construct using the ExSite™ PCR-Based Site-Directed Mutagenesis Kit (Stratagene).
Transient transfection experiments were carried out in C-28/I2 cells using LipofectAMINE PLUS™ Reagent (Life Technologies). Cells were seeded in 6-well tissue culture plates at 3.5×10^5 cells/well in DMEM/F12 containing 10% FCS 24 h prior to transfection. For each well, 1 μg of COL2A1-luciferase construct, 6 μl of PLUS reagent and 92 μl of serum-free DMEM/F12 were mixed and incubated for 15 min at room temperature. LipofectAMINE+ reagent (4 μl) in 100 μl of serum-free medium was then added to each reaction mixture and incubation was continued for an additional 30 min at room temperature. Finally, the transfection mixture was combined with 800 μl of serum-free medium and the lipid-nucleic acid complex was transferred to the washed cell monolayer in each well. After incubation for 4 h at 37° C., the transfection mix was diluted with an equal volume of DMEM/F12 containing 2% Nutridoma-SP, and incubation continued for 18 h in the absence or presence of IL-1β. For cotransfections, the cells were incubated for 24 h to permit expression of recombinant proteins prior to treatment with IL-1β for a further 18 h. Cell lysates were prepared by extraction with 200 μl of Reporter Lysis Buffer (Promega) and the protein content was determined using the Coomassie Plus Protein Assay Reagent (PIERCE). Luciferase activities were determined by chemiluminescence assay using the Autolumat LB953 luminometer (EG&G Berthold, Oak Ridge, Tenn.), normalized to the amount of protein. Each data point was calculated as the mean±standard deviation for three independently transfected cultures from one representative of at least three experiments. […]

ESE-1 [1] = assay: ESE-1 mRNA RT-PCR in immortalized chondrocytes T/C28a2, C28/I2, C20/A4; format: cell-based, human; conditions: T/C28a2, C28/I2 and C20/A4 chondrocytes; 24 hours
Experimental: (§1) U-87 Mg and U-138 Mg (human glioma), THP-1 (human monocytic), RAW 264.7 (murine monocytic), LB-12 (human osteoblast-like large T antigen transformed bone marrow stromal cells), and human chondrocytes were grown and treated with cytokines as described (Apperley, J., et al. 1990. J Bone Mineral Res. 5:S93; Goldring, M. B., et al. 1994. J Clin Invest 94:2307-16; Goldring, S. R., et al. 1983. J Bone Joint Surg 65:575-84; Libermann, T. A., et al. 1987. Embo J. 6:1627-1632).
(§2) cDNAs were generated from 1 μg of total RNA using Ready-To-Go™ You-prime First-Strand Beads (Amersham Pharmacia Biotech Inc). RT-PCR amplifications of 0.1 μg cDNA were carried out using a MJResearch thermal cycler PTC-100 as follows: 5 min at 94° C., 20-37 cycles of 30 sec at 94° C., 30 sec at 56° C., and 30 sec at 72° C., followed by 5 min at 72° C. (Oettgen, P., et al. 2000, J Biol Chem 275:1216-25). The sequences of the human ESE-1 primers and the primers for human GAPDH were as described (Oettgen, P., et al. 1999, J Biol Chem 274:29439-52).
To test the hypothesis that ESE-1 is a mediator of cytokine responses in non-epithelial cell types, we analyzed ESE-1 expression in response to a variety of cytokines in several connective tissue cell types. Immortalized human chondrocytes, T/C28a2, C28/I2, and C20/A4 (Goldring, M. B., et al. 1994, J Clin Invest 94:2307-16), were stimulated with IL-1β, TNF-α and IFN-γ for 24 hours. […] The kinetics of ESE-1 induction was explored in a time course experiment with T/ C28a2 chondrocytes.

ESE-1 [2] = assay: ESE-1 mRNA RT-PCR in RA synovial fibroblasts; format: cell-based, human; conditions: for ESE-1 mRNA expression, agent alone: 4th passage RA synovial fibroblasts
Experimental: Tissues from patients with rheumatoid arthritis (RA) were obtained as discarded materials from total joint replacement surgery or synovectomy. RA synovial tissue samples were cultured for the generation of adherent synovial fibroblasts. Dispersed synovial tissues were prepared by a previously published method (Goldring, S. R., et al. 1983. The synovial-like membrane at the bone-cement interface in loose total hip replacements and its proposed role in bone lysis. J Bone Joint Surg 65:575-84). Cells were subjected to 2-4 passages and stimulated with IL-1β (R&D Systems) at 100 pg/ml or with TNF-α (R&D Systems) at 5 ng/ml.
as §2
The synovium in RA is comprised of heterogeneous cell populations including monocyte/macrophages, lymphocytes and synovial fibroblasts. To evaluate whether ESE-1 expression in synovial fibroblasts is regulated by proinflammatory cytokines, 4th passage synovial fibroblasts isolated from RA synovium were stimulated for different times with IL-1β in the absence or presence of indomethacin. […] They also indicate that cytokine-induced prostaglandins may modulate steady state ESE-1 mRNA levels. […] We, therefore, focused our attention in further studies on IL-1β.

ESE-1 [3] = assay: ESE-1 mRNA Northern blot in LB-12 osteoblasts; format: cell-based, human; conditions: LB-12 cells
Experimental: as §1
Total RNA was harvested using QIAshreder (Qiagen) and RNeasy® Mini Kit (Quiagen) or Trizol (Gibco BRL). Poly A^+ RNA was prepared with MicroPoly(A) Pure (Ambion). Northern blots (5 μg total RNA) were hybridized using a full length ESE-1 cDNA probe as described (Oettgen, P., et al. et al. 1997, Mol Cell Biol 17:4419-33.).
Osteoblasts, the bone cells responsible for bone formation, represent another connective tissue cell target of inflammatory cytokines in joint disorders (Bogoch, E. R., and E. Moran. 1998, Can J Surg 41:264-71). […] LB-12 cells were incubated for different times in the absence or presence of IL-1β. […] Since the rapid, but transient induction of ESE-1 resembles that of immediate early genes, we tested the effect of the protein synthesis inhibitor cycloheximide which superinduces expression of certain genes due to mRNA stabilization. Cycloheximide alone had no effect, but superinduced IL-1β-mediated ESE-1 mRNA expression (FIG. 11d).

[4] = molecular target: T1, p65 subunit of NF-kB, full-length, in vitro translated (UniProt Q04206 1-551, limits assumed, 35S-methionine labeled (pull-down assay)); assay: GST pull-down, 35S-labeled in vitro translated p65
T1 construct: mature; In the pull-down it was translated in rabbit reticulocyte lysate with 35S-methionine; in the cotransfections it was expressed from pCI; also called p65 Rel domain protein
T1 sequence (Q04206 whole entry, the tested form may be a part): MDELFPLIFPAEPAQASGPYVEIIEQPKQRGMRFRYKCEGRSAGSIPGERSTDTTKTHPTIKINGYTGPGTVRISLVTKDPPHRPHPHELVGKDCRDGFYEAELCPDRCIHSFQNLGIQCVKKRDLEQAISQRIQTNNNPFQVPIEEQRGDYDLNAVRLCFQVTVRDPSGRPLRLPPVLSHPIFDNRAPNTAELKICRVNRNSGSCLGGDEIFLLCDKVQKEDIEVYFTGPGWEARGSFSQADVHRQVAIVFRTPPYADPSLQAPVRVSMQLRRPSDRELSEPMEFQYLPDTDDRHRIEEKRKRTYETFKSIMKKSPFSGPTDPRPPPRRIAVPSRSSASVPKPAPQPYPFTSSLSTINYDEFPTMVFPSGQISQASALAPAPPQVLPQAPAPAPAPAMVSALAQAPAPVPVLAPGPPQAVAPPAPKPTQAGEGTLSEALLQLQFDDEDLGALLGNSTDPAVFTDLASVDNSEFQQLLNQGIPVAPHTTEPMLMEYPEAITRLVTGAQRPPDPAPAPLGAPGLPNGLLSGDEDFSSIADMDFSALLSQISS
Experimental: A series of GST-ESE-1 fusion proteins were generated by PCR with specific primers to contain in frame restriction enzyme sites and sequenced to confirm that there were no mutations introduced by the PCR. GST-ESE-1 fusion proteins were prepared as previously described. 35S-methionine labeled in vitro translated full-length p50 and p65 were incubated with equal amounts of GST-ESE-1 fusion proteins or GST on agarose beads in 200 ul of NETN(0.5% Nonidet P-40, 1 mM EDTA, 20 mM Tris-HCl, pH 8.0, 100 mM NaCl) for 3 h at 4 degrees C. with gentle shaking. Bound p50 or p65 proteins were then eluted after three washings with NETN buffer and analyzed on a 12% SDS-polyacrylamide gel.

NOS2 promoter [5] = assay: LPS (endotoxin) induction of NOS2 promoter luciferase reporter in RAW cells; format: cell-based, murine
Experimental: (§3) A 1516 and 265 bp fragment corresponding to nucleotides (−1485 to +31) and (−234 to +31) of the murine NOS2 gene promoter were subcloned into the PGL2 luciferase reporter(Promega).
(§4) Co-transfections of 2×10^5 RAW cells or RASMCs were carried out with 0.6 μg reporter gene construct DNA and 0.6 μg expression vector DNA using 6 μl lipofectamine (Gibco-BRL) as described (Oettgen, P., et al. 1996. Characterization of NERF, a novel transcription factor related to the Ets factor ELF-1. Mol Cell Biol 16:5091-106). The cells were harvested 16 hours after transfection and assayed for luciferase activity. Transfections for every construct were performed independently in duplicates and repeated 3 times with two different plasmid preparations with similar results. Cotransfection of a second plasmid for determination of transfection efficiency was omitted because potential artifacts with this technique have been reported and because many commonly used viral promoters contain potential binding sites for ets factors (Farr, A., and A. Roman. 1992. A pitfall of using a second plasmid to determine transfection efficiency. Nucleic Acids Res 20:920).
In the presence of LPS, the ESE-1 DN1 protein blocked induction of the NOS2 promoter by LPS by approximately 70-75%. (See FIG. 21C).

NOS2 promoter [6] = assay: ESE-1 transactivation of NOS2 promoter luciferase reporter, cotransfection in RAW cells; format: cell-based, murine; conditions: cotransfected with ESE-1
Experimental: as §3, §4
The ability of ESE-1 DN 1 to block transactivation of the NOS2 promoter was tested in RAW cells. Cotransfection of ESE-1 with the NOS2 promoter led to an approximate 12-fold increase in transactivation. […]

pCI-NERF2: expression vector for the ETS factor NERF-2
inhibition of COL2A1/4.0 activity (COL2A1 promoter): 40%

IFN-γ: cytokine tested on chondrocytes
ESE-1 expression (ESE-1 [1]): failed to induce ESE-1 expression

TNF-α
ESE-1 mRNA expression, agent alone (ESE-1 [2]): minimal ESE-1 induction | ESE-1 expression (ESE-1 [1]): stimulated ESE-1 expression in T/ C28a2 cells to similar levels as IL-1β, but only weakly in C28/I2 and C20/A4 cells

C[C@]12CCC(=O)C=C1CC[C@@H]1[C@@H]2[C@@H](O)C[C@@]2(C)[C@H]1CC[C@]2(O)C(=O)CO [Hydrocortisone]
IL-1β-mediated ESE-1 mRNA expression in presence of agent (ESE-1 [3]): strongly enhanced | ESE-1 mRNA expression, agent alone (ESE-1 [3]; 1, 2, 6, 24 hours): did not induce

ESE-3: ESE family Ets factor overexpressed by cotransfection
inhibition of pGL2-COL2/4.0 (COL2A1 promoter; highest concentration tested): ~60%

pCI-ELF1: expression vector for the ETS factor ELF-1
inhibition of COL2A1/4.0 activity (COL2A1 promoter): 65%

COc1ccc2c(c1)c(CC(=O)O)c(C)n2C(=O)c1ccc(Cl)cc1 [indomethacin]
ESE-1 mRNA expression, agent alone (ESE-1 [2]): did not express detectable ESE-1 mRNA | IL-1β-induced ESE-1 mRNA levels in presence of agent (ESE-1 [2]; RA synovial fibroblasts, 6 hours, 24 hours, 5 days): stabilized and did not decline even after 5 days

B1: GST-ESE-1 fusion protein, full length ESE-1 (other, UniProt P78545 1-371, looked up)
chain: MAATCEISNIFSNYFSAMYSSEDSTLASVPPAATFGADDLVLTLSNPQMSLEGTEKASWLGEQPQFWSKTQVLDWISYQVEKNKYDASAIDFSRCDMDGATLCNCALEELRLVFGPLGDQLHAQLRDLTSSSSDELSWIIELLEKDGMAFQEALDPGPFDQGSPFAQELLDDGQQASPYHPGSCGAGAPSPGSSDVSTAGTGASRSSHSSDSGGSDVDLDPTDGKLFPSDGFRDCKKGDPKHGKRKRGRPRKLSKEYWDCLEGKKSKHAPRGTHLWEFIRDILIHPELNEGLMKWENRHEGVFKFLRSEAVAQLWGQKKKNSNMTYEKLSRAMRYYYKREILERVDGRRLVYKFGKNSSGWKEEEVLQSRN
notes: mature; GST fusion on agarose beads in the pull-down; also called full length ESE-1 protein; not shown: glutathione S-transferase (GST) fusion partner
binding result [4]: no binding

B2: ESE-1 DN1: dominant negative ESE-1 protein lacking amino acids 26 through 192, expressed from pCI plasmid (SEQ ID NO: 39) (protein, listed as Homo sapiens)
chain: MAATCEISNIFSNYFSAMYSSEDSTAGTGASRSSHSSDSGGSDVDLDPTDGKLFPSDGFRDCKKGDPKHGKRKRGRPRKLSKEYWDCLEGKKSKHAPRGTHLWEFIRDILIHPELNEGLMKWENRHEGVFKFLRSEAVAQLWGQKKKNSNMTYEKLSRAMRYYYKREILERVDGRRLVYKFGKNSSGWKEEEVLQSRN
induction of the NOS2 promoter by LPS blocked by (NOS2 promoter [5]; in the presence of LPS): 70-75% | basal NOS2 promoter activity (NOS2 promoter [5]; prior to LPS induction): slight reduction | ESE-1 transactivation of the NOS2 promoter blocked by (NOS2 promoter [6]): 60-70%

Source: patent publication US6869929B2, “Use of transcription factors for treating inflammation and other diseases” (Beth Israel Deaconess Medical Center, priority 2000, dated 2005)
